We go through 22 compounds from ChEMBL document CHEMBL1201862, “PubChem BioAssay data set” (2004).

Test [1] can be described thus: cells. The class given is functional, cell-based.
Test [2] in a line: cells. The class given is functional, cell-based. The source holds these as a separate data set.
Test [3] can be described thus: microbe, parasite or virus in culture. It is filed as functional. The following applies: Mycobacterium tuberculosis.
A short description of test [4]: alpha-synuclein stem-loop luciferase translation blockers – H4 neuroglioma cells, luminescence, confirmation (AID 1988). The class given is functional, cell-based.
Test [5] in a line: luciferase reporter signal suppression in cells – H4 neuroglioma cells, luminescence, dose response (AID 1990). It is filed as functional, cell-based. On the technique in general: Reporter assays use an easily measured gene product as a stand-in for the process of interest.
Test [6] in a line: Luminescence Cell-Based Dose Response HTS to Identify Inhibitors of 5'UTR Stem-Loop Driven Prion Protein mRNA Translation in H4 Neuroglioblastoma Cells. [Related pubchem assays: 1827 (Project Summary), 1813 (Primary HTS)]. The class given is functional.
A short description of test [7]: Luminescence Cell-Based Dose Retest to Confirm Inhibitors of Cancer Stem Cells. [Related pubchem assays (depositor defined):AID2717, AID2721]. The following applies: Homo sapiens. It is filed as functional.
In another test the test system is H9c2. The test is described as follows: cells. The class given is functional, cell-based. The following applies: Rattus norvegicus, H9c2, Myocardium.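 Also: confirmatory concentration-response retest of ultra-high-throughput screening hits for modulation of myocardial damage; cell death induced by hydrogen peroxide oxidative stress; compound pretreatment for 60 min then peroxide exposure for 2 h; potency is for protecting the cells against peroxide damage rather than for killing them.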
A short description of test [8]: viability of HCT116 lacking mutant beta-catenin – cell-based, human colon tumor, dose response (AID 1045).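 Also: HCT116 colon tumor cells with beta catenin knocked out; cells exposed to compound for 60 hours.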 The class given is functional.
Test [9] is described as follows: viability of PTEN-deleted HCT116 cells – cell-based, HCT116 PTEN knockout, dose response (AID 1047).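 Also: HCT116 colon tumor cells with PTEN knocked out; cells exposed to compound for 60 hours before readout; potency for loss of cell viability measured by luminescence.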 It is filed as functional.
Test [10] in a line: blockers of HIV-1 ZM109 envelope-driven cell-cell fusion – HeLa effector, CEM target cells, luciferase, cherry-pick, dose response (AID 652058).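 Also: luciferase signal from HIV-1 Env mediated cell-cell fusion of effector and target cells.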 It is filed as functional, cell-based.
For the next test, the target named is Large T antigen (Simian virus 40, UniProt P03070). The class given is functional, Betapolyomavirus macacae.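 Also: Confirmatory-stage PubChem screen for compounds that inhibit SV40 T antigen.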
The target of the next test is T1, Protein skinhead-1 (Caenorhabditis elegans, UniProt P34707).
T1 sequence (P34707 whole entry): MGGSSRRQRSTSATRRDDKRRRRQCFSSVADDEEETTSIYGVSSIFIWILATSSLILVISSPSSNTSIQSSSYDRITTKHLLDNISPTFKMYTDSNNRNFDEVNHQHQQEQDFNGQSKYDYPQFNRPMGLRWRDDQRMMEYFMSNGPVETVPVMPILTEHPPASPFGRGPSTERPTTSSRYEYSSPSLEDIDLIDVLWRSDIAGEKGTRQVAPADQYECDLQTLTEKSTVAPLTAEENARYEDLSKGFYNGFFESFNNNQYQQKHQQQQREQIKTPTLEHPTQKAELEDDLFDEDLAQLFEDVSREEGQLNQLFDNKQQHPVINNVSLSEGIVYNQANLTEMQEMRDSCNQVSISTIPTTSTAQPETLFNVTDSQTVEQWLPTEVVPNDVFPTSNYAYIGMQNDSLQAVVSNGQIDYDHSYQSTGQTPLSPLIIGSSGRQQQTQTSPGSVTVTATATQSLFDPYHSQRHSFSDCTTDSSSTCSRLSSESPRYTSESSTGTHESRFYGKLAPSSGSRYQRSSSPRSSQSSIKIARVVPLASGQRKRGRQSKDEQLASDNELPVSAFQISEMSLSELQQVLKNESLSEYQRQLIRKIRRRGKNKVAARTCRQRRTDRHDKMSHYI
It is filed as functional.

In a further test the target is Cytochrome P450 2C19 (Homo sapiens, UniProt P33261). Description: Cytochrome panel assay with activity outcomes. Panel member name: p450-cyp2c19 Compounds with AC50 equal or less than 10 uM are considered active. The following applies: read-out: AC50. The class given is functional.
The target of the next test is Cytochrome P450 3A4 (Homo sapiens, UniProt P08684).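 Also: CYP3A4 tested as one member of a cytochrome P450 panel screen.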
The target in the next test is T2, Cytochrome P450 1A2 (Homo sapiens, UniProt P05177).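 Also: PubChem cytochrome P450 panel assay, CYP1A2 panel member.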
T2 sequence (P05177 whole entry): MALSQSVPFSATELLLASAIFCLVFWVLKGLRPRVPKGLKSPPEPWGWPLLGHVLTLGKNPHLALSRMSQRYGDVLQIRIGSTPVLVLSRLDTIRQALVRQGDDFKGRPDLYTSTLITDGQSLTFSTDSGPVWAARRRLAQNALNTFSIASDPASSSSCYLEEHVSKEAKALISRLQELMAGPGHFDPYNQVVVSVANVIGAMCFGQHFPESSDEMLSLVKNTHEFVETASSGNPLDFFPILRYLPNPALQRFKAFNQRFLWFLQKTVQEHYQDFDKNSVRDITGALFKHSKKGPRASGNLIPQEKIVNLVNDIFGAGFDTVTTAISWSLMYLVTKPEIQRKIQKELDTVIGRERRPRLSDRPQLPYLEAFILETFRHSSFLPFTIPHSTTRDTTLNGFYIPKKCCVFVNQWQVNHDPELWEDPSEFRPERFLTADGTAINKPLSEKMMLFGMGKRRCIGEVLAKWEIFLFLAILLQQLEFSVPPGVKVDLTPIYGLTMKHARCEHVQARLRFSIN

Activity calls are given as the source filed them.

Sequence of Cytochrome P450 2C19 (P33261 whole entry): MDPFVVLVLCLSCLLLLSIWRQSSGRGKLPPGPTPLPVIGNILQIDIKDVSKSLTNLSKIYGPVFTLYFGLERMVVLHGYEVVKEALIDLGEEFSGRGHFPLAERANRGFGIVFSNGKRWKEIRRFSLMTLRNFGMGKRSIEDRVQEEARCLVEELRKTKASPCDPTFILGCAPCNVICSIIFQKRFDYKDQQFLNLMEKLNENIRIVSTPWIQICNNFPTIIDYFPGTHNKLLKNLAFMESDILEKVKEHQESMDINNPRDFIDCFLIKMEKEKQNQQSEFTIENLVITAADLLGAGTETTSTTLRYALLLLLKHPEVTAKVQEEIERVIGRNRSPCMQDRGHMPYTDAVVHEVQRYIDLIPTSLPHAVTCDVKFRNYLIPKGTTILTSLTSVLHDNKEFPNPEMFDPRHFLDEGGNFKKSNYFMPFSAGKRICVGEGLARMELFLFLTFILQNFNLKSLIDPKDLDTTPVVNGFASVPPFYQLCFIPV
Sequence of Cytochrome P450 3A4 (P08684 whole entry): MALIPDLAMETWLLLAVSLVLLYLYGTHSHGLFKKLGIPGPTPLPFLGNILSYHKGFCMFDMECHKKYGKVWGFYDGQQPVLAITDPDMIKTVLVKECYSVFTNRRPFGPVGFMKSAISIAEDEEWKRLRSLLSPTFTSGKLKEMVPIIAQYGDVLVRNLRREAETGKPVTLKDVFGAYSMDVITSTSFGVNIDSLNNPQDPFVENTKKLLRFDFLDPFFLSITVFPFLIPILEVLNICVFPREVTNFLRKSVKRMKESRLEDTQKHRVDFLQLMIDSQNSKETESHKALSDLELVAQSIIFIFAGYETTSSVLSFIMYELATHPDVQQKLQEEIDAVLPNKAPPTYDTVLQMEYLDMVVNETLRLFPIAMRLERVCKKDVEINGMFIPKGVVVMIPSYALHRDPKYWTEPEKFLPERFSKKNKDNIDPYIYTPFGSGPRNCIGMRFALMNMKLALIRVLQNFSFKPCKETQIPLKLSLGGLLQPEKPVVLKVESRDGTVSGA
Sequence of Large T antigen (P03070 whole entry): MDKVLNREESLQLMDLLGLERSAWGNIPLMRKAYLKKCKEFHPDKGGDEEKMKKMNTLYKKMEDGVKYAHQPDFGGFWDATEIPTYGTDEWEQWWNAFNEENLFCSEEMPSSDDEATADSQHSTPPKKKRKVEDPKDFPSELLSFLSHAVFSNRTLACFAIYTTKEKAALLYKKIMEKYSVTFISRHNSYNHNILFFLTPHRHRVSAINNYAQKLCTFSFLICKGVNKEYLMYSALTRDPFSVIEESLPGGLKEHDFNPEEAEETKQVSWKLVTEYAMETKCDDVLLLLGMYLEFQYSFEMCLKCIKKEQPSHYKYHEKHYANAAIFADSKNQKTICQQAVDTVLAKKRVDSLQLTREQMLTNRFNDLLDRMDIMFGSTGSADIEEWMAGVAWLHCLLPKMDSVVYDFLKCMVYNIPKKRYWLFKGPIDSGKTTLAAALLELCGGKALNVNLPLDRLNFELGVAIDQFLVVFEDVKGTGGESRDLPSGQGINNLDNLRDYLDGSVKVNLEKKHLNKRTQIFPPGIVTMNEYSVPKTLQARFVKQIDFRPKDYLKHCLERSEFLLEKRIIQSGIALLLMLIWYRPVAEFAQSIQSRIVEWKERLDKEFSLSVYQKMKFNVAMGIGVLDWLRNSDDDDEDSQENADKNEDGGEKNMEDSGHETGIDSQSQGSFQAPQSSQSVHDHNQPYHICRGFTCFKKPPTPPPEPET

Broadly, the EC50 is the midpoint of the concentration-response curve. Consider `Cc1ccc(C)c(-c2cc(C(=O)Nc3cccc(C(=O)O)c3)c3ccccc3n2)c1`, for which the concentration giving a half-maximal response (EC50) in “cells [1]” and in the test “cells [2]” was > 350 µM (not active) throughout.

`CCC(/C=C(\O)c1cccnc1)=N\c1ccc(C)c(C)c1`: the CC50 in test [3] is > 40 µM (active).

As usually defined, the AC50 is the midpoint of the concentration-response curve, whichever way the signal moves. The term IC50 denotes the concentration at which inhibition is half-maximal. As to `Cc1cc(C)cc(NC(=O)CSc2ccc(-c3ccccn3)nn2)c1`, the EC50 in test [4] was 8.69 µM (active); in the test “cells [1]” it was > 350 µM (not active); in test [5], 11.7 µM (active); in test [6] it was 9.74 µM (active); in “cells [2]” it was > 350 µM (not active). Also, the concentration at half-maximal activity (AC50) in test [7] is 4.57 µM (active). For the same compound, in the test on H9c2, the IC50 was > 79 µM (inactive).

As to `CCc1ccc2nc(O)c(CN(CCCN3CCOCC3)C(=O)Nc3cccc(Cl)c3)cc2c1`, the CC50 in [3] is 15 µM (active).

Take `CCOC(=O)C(C)(C)N(Cc1ccc(Cl)cc1)S(=O)(=O)c1ccc(Cl)c([N+](=O)[O-])c1`: the values for the half-maximal effective concentration (EC50) in test [8] and in test [9] were 8.15 µM (active) and 14.7 µM (active), respectively. The AC50 in [7] is 2.07 µM (active).

For the compound `O=C(Nc1ccc(F)cc1)Nc1ccc2c(c1)[C@@H]1C[C@H](CC(=O)N3CCCCC3)O[C@H](CO)[C@@H]1O2`, the AC50 in test [10] was 62.5 µM (active).

Regarding `CCOc1ccc(C(=O)NCC2CCCO2)cc1OCC` (configuration not stated), the half-maximal effective concentration (EC50) in the test “cells [1]” and in “cells [2]” was > 350 µM (not active) in each case.

On to `O=C(c1cc(COc2ccc(F)cc2F)on1)N1CCCC(c2ccccc2)C1` (configuration not stated), for which the CC50 in test [3] was > 40 µM (active).

In the case of `CCCCCCn1c(COc2ccccc2F)nnc1SCC(=O)N1c2ccccc2NC(=O)C1(C)C`, the results for the EC50 in test [8] and in test [9] were 26.5 µM (active) and 23.5 µM (active), respectively.

For `CC(C)c1nc(CNC(=O)CCc2nnc(-c3ccsc3)o2)cs1`, the 50% effective concentration (EC50) in “cells [1]” and in “cells [2]” was > 350 µM (not active) throughout.

`Cc1cc2c(N=O)c(NO)ccc2[nH]1`: the IC50 at Large T antigen is 29.3 µM (active). Moreover, the CC50 in [3] was 5.53 µM (active).

As to `COc1cccc(-c2cc(C(F)(F)F)n3nc(C(=O)N4CCC5(CC4)OCCO5)cc3n2)c1`, the EC50 in the test “cells [1]” and in “cells [2]” was > 350 µM (not active) throughout.

On to `COC(=O)CC1C(=O)NCCN1C(=O)CSc1nnc(Nc2ccc(OC)cc2)s1` (configuration not stated), for which the EC50 in “cells [1]” and in “cells [2]” was > 350 µM (not active) each time.

`O=[N+]([O-])c1cccc(/C=N/Nc2nc(C(Cl)(Cl)Cl)nc3ccccc23)c1`: the EC50 in test [8] was 25.2 µM (active); in test [9], 24.4 µM (active).

As for `CCc1[nH]nc2c1/C(=N\O)CC(c1ccccc1)C2` (configuration not stated), the EC50 was 91.4 µM (active) in [8] and 61.3 µM (active) in [9].

Take `CC(C)NC(=O)CN(C)S(=O)(=O)c1ccc(F)cc1`: at Protein skinhead-1, the IC50 is > 100 µM (inactive).

With `CCCn1cc(NC(=O)c2cc(-c3ccccc3)on2)cn1`, the half-maximal effective concentration (EC50) in the test “cells [1]” is 2.49 µM (active); in “cells [2]”, 143 µM (active).

Take `COc1ccc(NC(=O)Nc2ccc(CC(=O)O)cc2)cc1`: the figures for the EC50 in “cells [1]” and in the test “cells [2]” were 139 µM (active) and > 350 µM (not active), respectively.

Turning to `Cc1sc2nc(CN(C(=O)NC3CCCCC3)C3CCCC3)nc(O)c2c1C`, the CC50 in [3] was > 40 µM (active).

For the compound `Cn1cc(C(=O)c2ccc(Cl)cc2)cc1-c1nc2ccccc2n1C`, the CC50 in test [3] is > 40 µM (active).

For the compound `CC(C)(C)CC(=O)NC(=S)N1CCCCCC1`, the AC50 on Cytochrome P450 2C19 is 39.8 µM (inconclusive); at Cytochrome P450 3A4, 12.6 µM (inconclusive); at Cytochrome P450 1A2 it was 15.8 µM (inconclusive). In addition, the IC50 at Protein skinhead-1 is > 100 µM (inactive).

Regarding `S=C(NN=C1CCN(Cc2ccccc2)CC1)NC1CCCCC1`, the half-maximal effective concentration (EC50) in [4], in test [5] and in test [6] was > 120 µM (not active) in each case. Moreover, the CC50 in test [3] was > 40 µM (active).
